Experimental data published in patent US20210070748A1, “INHIBITORS OF BRUTONS TYROSINE KINASE” (Pharmacyclics LLC, priority 2015, published 2021).
Read-outs that look alike come from different tables or passages of the source.

Tests used:
Format in all cases: biochemical
TEC = molecular target: T1, TEC (Homo sapiens, UniProt P42680); assay: Inhibition of a panel of kinases, in vitro HotSpot kinase assay: TEC; conditions: E compounds, Table 17
T1 sequence (P42680 1-631): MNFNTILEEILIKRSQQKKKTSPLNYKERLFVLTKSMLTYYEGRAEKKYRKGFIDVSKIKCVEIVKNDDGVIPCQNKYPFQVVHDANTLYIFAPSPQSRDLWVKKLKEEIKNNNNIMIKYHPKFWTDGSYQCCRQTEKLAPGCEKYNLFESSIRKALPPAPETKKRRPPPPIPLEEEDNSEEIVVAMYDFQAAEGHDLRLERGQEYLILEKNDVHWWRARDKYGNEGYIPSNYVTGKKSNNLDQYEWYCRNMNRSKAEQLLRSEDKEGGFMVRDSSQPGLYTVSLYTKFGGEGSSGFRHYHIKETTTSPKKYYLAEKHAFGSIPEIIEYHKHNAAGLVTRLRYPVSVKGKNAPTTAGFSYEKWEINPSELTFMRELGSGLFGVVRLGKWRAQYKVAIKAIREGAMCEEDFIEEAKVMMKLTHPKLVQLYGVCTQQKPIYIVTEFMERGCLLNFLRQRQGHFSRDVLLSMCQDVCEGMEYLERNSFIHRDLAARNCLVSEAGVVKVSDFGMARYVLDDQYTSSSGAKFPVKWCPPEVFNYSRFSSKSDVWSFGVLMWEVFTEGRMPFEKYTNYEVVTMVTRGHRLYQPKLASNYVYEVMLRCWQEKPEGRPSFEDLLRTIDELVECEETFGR
Method: (§1) The degree of inhibition of a panel of kinases is determined using the in vitro HotSpot kinase assay (purified enzymes, ^33P-ATP, an appropriate substrate and 1 μM ATP).

ITK = molecular target: T2, ITK (Homo sapiens, UniProt Q08881); assay: Inhibition of a panel of kinases, in vitro HotSpot kinase assay: ITK; conditions: E compounds, Table 17
T2 sequence (Q08881 1-620): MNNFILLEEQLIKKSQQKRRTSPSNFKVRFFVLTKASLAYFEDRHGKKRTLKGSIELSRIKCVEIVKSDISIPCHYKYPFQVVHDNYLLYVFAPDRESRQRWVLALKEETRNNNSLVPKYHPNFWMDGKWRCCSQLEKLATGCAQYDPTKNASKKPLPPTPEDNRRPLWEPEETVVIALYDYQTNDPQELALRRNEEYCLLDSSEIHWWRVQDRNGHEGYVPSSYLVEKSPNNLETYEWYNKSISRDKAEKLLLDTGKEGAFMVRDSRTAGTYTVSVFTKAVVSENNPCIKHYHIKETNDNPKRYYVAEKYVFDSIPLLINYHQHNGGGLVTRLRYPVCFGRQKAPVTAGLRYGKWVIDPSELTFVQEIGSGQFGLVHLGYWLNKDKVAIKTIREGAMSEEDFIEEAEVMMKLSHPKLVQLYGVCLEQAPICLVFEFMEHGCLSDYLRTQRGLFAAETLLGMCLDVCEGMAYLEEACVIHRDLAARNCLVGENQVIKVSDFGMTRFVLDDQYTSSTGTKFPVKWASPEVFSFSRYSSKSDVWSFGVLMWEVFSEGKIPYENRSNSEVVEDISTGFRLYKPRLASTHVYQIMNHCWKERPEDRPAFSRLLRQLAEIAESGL
Method: as §1

BTK-WT = molecular target: T3, BTK-WT (Homo sapiens, UniProt Q06187); assay: Btk in vitro inhibitory activity (one of Method A TR-FRET, Method B electrophoretic mobility shift, Method C radiometric filter binding)
T3 construct: purified from insect cells as a full-length construct containing an N-terminal 6X-His tag; His6 (N); made in house; host or cells: insect cells (baculovirus Sf21 in Method B)

LCK = LCK (Homo sapiens, UniProt P06239); assay: Inhibition of a panel of kinases, in vitro HotSpot kinase assay: LCK; conditions: Table 10, Formula A-I; 1 μM ATP; read-out: LCK (IC50)
JAK3 = molecular target: T4, JAK3 (Homo sapiens, UniProt P52333); assay: Inhibition of a panel of kinases, in vitro HotSpot kinase assay: JAK3; conditions: Table 10, Formula A-I; 1 μM ATP; read-out: JAK3 (IC50)
T4 sequence (P52333 1-1124): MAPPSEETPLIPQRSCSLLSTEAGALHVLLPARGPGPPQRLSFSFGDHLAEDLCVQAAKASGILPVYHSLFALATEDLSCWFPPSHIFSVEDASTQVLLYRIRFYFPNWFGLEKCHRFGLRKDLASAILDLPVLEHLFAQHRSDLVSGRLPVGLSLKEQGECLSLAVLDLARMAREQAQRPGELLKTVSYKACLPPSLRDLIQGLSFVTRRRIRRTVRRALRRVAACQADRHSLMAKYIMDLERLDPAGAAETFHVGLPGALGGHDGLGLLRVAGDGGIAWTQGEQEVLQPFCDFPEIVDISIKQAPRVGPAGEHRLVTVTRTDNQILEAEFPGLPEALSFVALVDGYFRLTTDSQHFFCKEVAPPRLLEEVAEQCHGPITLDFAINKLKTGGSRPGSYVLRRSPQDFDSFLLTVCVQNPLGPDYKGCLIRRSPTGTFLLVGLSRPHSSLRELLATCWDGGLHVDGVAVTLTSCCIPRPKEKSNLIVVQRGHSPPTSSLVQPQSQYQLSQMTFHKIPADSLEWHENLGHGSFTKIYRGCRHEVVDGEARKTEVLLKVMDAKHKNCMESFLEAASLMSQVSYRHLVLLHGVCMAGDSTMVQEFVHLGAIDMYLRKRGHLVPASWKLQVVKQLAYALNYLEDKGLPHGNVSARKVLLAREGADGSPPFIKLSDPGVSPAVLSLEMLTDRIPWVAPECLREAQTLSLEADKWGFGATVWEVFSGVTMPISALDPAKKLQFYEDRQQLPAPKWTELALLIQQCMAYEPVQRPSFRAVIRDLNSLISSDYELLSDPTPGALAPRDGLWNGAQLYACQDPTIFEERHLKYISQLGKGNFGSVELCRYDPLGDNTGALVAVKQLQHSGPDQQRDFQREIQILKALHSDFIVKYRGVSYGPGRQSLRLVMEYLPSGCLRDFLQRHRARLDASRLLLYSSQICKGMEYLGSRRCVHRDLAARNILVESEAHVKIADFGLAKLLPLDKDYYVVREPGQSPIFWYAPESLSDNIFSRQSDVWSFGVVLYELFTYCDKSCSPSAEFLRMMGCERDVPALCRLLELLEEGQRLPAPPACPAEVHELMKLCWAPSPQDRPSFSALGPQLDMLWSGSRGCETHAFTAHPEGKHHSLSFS

[1] = E compounds, Table 17, read-out: IC50 BTK-WT

T3 sequence (Q06187 whole entry): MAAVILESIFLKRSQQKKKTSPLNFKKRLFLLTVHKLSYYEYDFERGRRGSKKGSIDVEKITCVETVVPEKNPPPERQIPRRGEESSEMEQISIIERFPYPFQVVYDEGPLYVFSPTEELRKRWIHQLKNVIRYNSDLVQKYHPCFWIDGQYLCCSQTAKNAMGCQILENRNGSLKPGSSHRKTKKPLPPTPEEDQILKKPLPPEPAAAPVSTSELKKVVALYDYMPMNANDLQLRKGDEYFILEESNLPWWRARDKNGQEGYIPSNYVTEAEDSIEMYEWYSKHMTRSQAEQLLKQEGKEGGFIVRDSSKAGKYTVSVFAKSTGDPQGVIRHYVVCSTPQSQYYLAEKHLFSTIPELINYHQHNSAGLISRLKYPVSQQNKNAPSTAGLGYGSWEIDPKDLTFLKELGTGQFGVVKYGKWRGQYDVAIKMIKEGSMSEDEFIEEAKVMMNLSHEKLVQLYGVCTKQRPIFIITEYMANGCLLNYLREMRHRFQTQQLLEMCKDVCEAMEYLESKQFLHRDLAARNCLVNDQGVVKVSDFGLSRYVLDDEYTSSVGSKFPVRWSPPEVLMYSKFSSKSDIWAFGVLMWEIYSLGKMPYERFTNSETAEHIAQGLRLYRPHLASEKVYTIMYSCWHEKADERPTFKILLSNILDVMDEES
Chain of LCK (P06239 whole entry): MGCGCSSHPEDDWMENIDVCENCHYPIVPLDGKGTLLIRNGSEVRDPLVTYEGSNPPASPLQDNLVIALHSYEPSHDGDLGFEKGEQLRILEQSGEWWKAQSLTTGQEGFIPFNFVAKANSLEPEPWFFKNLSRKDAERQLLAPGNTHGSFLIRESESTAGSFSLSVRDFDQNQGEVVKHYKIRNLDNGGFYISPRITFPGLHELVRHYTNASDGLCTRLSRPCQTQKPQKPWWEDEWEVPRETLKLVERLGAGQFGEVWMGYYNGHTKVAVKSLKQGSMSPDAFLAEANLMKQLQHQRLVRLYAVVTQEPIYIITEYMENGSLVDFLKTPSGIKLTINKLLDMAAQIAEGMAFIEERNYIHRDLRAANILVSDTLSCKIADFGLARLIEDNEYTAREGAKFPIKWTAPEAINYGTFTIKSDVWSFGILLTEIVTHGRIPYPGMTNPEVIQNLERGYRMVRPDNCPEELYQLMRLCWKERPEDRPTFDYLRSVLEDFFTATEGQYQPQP

| SMILES | IC50 (TEC) [nM] | IC50 (ITK) [nM] | IC50 (BTK-WT; [1]) [nM] | IC50 (LCK) [nM] | IC50 (JAK3) [nM] | IC50 (BTK-WT; Table 10, Formula A-I, read-out: BTK-WT (IC50)) [nM] |
| --- | --- | --- | --- | --- | --- | --- |
| CN(c1cnc(C(N)=O)c(Nc2ccc(C3CCN(C4CC4)CC3)cc2)n1)[C@@H]1CCN(C(=O)CCCl)C1 [Example E-122, (R)-5-((1-(3-chloropropanoyl)pyrrolidin-3-yl)(methyl)amino)-3-(4-(1-cyclopropylpiperidin-4-yl)phenylamino)pyrazine-2-carboxamide] | ≤ 10 | ≤ 10 | ≤ 10 | – | – | – |
| C=CC(=O)N1CCC[C@@H](Nc2nnc(C(N)=O)c(Nc3cccc(Cl)c3)n2)C1 [Example E-75, (R)-3-(1-acryloylpiperidin-3-ylamino)-5-(3-chlorophenylamino)-1,2,4-triazine-6-carboxamide] | ≤ 10 | 10 to 100 | ≤ 10 | – | – | – |
| C=CC(=O)N1CCC[C@@H](Nc2nnc(C(N)=O)c(Nc3ccc(C4=NCCN4C)cc3)n2)C1 [Example E-80, (R)-3-(1-acryloylpiperidin-3-ylamino)-5-(4-(1-methyl-4,5-dihydro-1H-imidazol-2-yl)phenylamino)-1,2,4-triazine-6-carboxamide] | ≤ 10 | ≤ 10 | ≤ 10 | – | – | – |
| C=CC(=O)N1CCC[C@@H](Nc2nnc(C(N)=O)c(Nc3cnc4ccccc4c3)n2)C1 [Example E-54, (R)-3-(1-acryloylpiperidin-3-ylamino)-5-(quinolin-3-ylamino)-1,2,4-triazine-6-carboxamide] | ≤ 10 | 10 to 100 | ≤ 10 | – | – | – |
| C=CC(=O)N1CCC[C@@H](Nc2nnc(C(N)=O)c(Nc3cccc(C(=O)N4CCOCC4)c3)n2)C1 [Example E-85, (R)-3-(1-acryloylpiperidin-3-ylamino)-5-(3-(morpholine-4-carbonyl)phenylamino)-1,2,4-triazine-6-carboxamide] | ≤ 10 | 10 to 100 | ≤ 10 | – | – | – |
| Cc1cc(Nc2nc(N3CCC[C@H](NC(=O)c4ccc(N(C)C)cc4)[C@@H]3C)cnc2C(N)=O)sn1 [Example A-54, 5-[(2S,3S)-3-[4-(dimethylamino)benzamido]-2-methylpiperidin-1-yl]-3-[(3-methyl-1,2-thiazol-5-yl)amino]pyrazine-2-carboxamide] | – | – | – | 100 to 1000 | 1000 to 10000 | ≤ 100 |

Now from value to molecule:

| IC50 (TEC) [nM] | IC50 (ITK) [nM] | IC50 (BTK-WT; [1]) [nM] | IC50 (LCK) [nM] | IC50 (JAK3) [nM] | IC50 (BTK-WT; Table 10, Formula A-I, read-out: BTK-WT (IC50)) [nM] | SMILES |
| --- | --- | --- | --- | --- | --- | --- |
| ≤ 10 | 10 to 100 | ≤ 10 | – | – | – | C=CC(=O)N1CCC[C@@H](Nc2nnc(C(N)=O)c(Nc3ccc(C(C)C)c(C)c3)n2)C1 [Example E-42, (R)-3-(1-acryloylpiperidin-3-ylamino)-5-(4-isopropyl-3-methylphenylamino)-1,2,4-triazine-6-carboxamide] |
| ≤ 10 | ≤ 10 | ≤ 10 | – | – | – | C=CC(=O)N1CCC[C@@H](Nc2nnc(C(N)=O)c(Nc3ccc(C4CCN(C5CCCC5)CC4)cc3)n2)C1 [Example E-48, (R)-3-(1-acryloylpiperidin-3-ylamino)-5-(4-(1-cyclopentylpiperidin-4-yl)phenylamino)-1,2,4-triazine-6-carboxamide] |
| ≤ 10 | 10 to 100 | ≤ 10 | – | – | – | C=CC(=O)N1CCC[C@@H](Nc2nnc(C(N)=O)c(Nc3cccc(C(=O)NC)c3)n2)C1 [Example E-82, (R)-3-(1-acryloylpiperidin-3-ylamino)-5-(3-(methylcarbamoyl)phenylamino)-1,2,4-triazine-6-carboxamide] |
| ≤ 10 | 10 to 100 | ≤ 10 | – | – | – | C=CC(=O)NC[C@H]1CCCN1c1nnc(C(N)=O)c(Nc2ccc(C(C)C)cc2)n1 [Example E-90, (R)-3-(2-(acrylamido-methyl)pyrrolidin-1-yl)-5-(4-isopropylphenyl-amino)-1,2,4-triazine-6-carboxamide] |
| ≤ 10 | ≤ 10 | ≤ 10 | – | – | – | C=CC(=O)N1CC[C@@H](N(C)c2cnc(C(N)=O)c(Nc3cc(C)ns3)n2)C1 [Example E-114, (R)-5-((1-acryloylpyrrolidin-3-yl)(methyl)amino)-3-(3-methylisothiazol-5-ylamino)pyrazine-2-carboxamide] |
| ≤ 10 | 10 to 100 | ≤ 10 | – | – | – | C=CC(=O)N1CCC[C@@H](Nc2nnc(C(N)=O)c(Nc3cccc(C(=O)NCc4ccccc4)c3)n2)C1 [Example E-86, (R)-3-(1-acryloylpiperidin-3-ylamino)-5-(3-(benzyl-carbamoyl)phenyl-amino)-1,2,4-triazine-6-carboxamide] |
| ≤ 10 | 10 to 100 | ≤ 10 | – | – | – | C=CC(=O)N1CCC[C@@H](Nc2nnc(C(N)=O)c(Nc3cc(F)cc(Cl)c3)n2)C1 [Example E-76, (R)-3-(1-acryloylpiperidin-3-ylamino)-5-(3-chloro-5-fluorophenylamino)-1,2,4-triazine-6-carboxamide] |
| ≤ 10 | 10 to 100 | ≤ 10 | – | – | – | C=CC(=O)N1CCC[C@@H](Nc2nnc(C(N)=O)c(Nc3ccc(Cl)cc3)n2)C1 [Example E-74, (R)-3-(1-acryloylpiperidin-3-ylamino)-5-(4-chlorophenylamino)-1,2,4-triazine-6-carboxamide] |
| ≤ 10 | ≤ 10 | ≤ 10 | – | – | – | C=CC(=O)N1CC[C@@H](N(C)c2nnc(C(N)=O)c(Nc3ccc(C(O)(C(F)(F)F)C(F)(F)F)cc3)n2)C1 [Example E-16, (R)-3-((1-acryloylpyrrolidin-3-yl)(methyl)amino)-5-(4-(1,1,1,3,3,3-hexafluoro-2-hydroxypropan-2-yl)phenylamino)-1,2,4-triazine-6-carboxamide] |
| ≤ 10 | 10 to 100 | ≤ 10 | – | – | – | C=CC(=O)N1CCC[C@@H](Nc2nnc(C(N)=O)c(Nc3ccc(C)cc3)n2)C1 [Example E-43, (R)-3-(1-acryloylpiperidin-3-ylamino)-5-(p-tolylamino)-1,2,4-triazine-6-carboxamide] |
